Results reported in patent publication US20220144847A1, “HETEROCYCLIC COMPOUND, PHARMACEUTICAL COMPOSITION COMPRISING SAME, PREPARATION METHOD THEREFOR, AND USE THEREOF” (Sichuan Kelun-Biotech Biopharmaceutical Co., Ltd., priority 2019, published 2022).

Experiments:
[1] = molecular target: RET-V804M (Homo sapiens, UniProt P07949, V804M); test: RET inhibition experiment (HTRF KinEASE-TK kit), mutant RET-V804M; format: biochemical; settings: for inhibition at 0.01 µM: 10 nM (Table 2); for IC50: read-out: The IC50 (nM) for inhibiting V804M
Description: Experimental method: According to the instructions of the HTRF KinEASE-TK kit (Cisbio), the compounds of the present disclosure were tested for their inhibitory effects on the activity of wild-type RET enzyme, mutant RET enzyme (RET-V804M, RET-V804L, and RET-M918T) and fusion-type RET enzyme (RET-CCDCl6). After pre-incubation of different RET enzymes and different concentrations of the test compounds at room temperature for 30 min, a substrate and adenosine triphosphate (ATP) were added to initiate the reaction. After incubation at room temperature for 40 min, TK antibody-cryptate and streptavidin-XL665 were added, and the test was performed after incubation at room temperature for 45 min. With the solvent group (DMSO) as the negative control and the buffer group (without RET enzyme) as the blank control, the relative inhibitory activity percentages (i.e., inhibition rates) of different concentrations of the compounds were computed as per the following formula:
(§1) Relative inhibitory activity percentage=1−(compound group of different concentrations−blank control)/(negative control−blank control)*100%
(§2) The relative inhibitory activity percentages of different concentrations of the compounds were plotted with respect to the compound concentrations, and the curve was fitted according to a four-parameter model to compute the IC50 value as per the following formula:
(§3) y=min+(max−min)/(1+(x/IC50)^(−Hillslope))
(§4) where y is the relative inhibitory activity percentage, max is the maximum value of the fitted curve, min is the minimum value of the fitted curve, x is the logarithmic concentration of the compound, and Hillslope is the slope of the curve.

[2] = molecular target: VEGFR2 (Homo sapiens, UniProt P35968); test: VEGFR2 inhibition experiment (HTRF KinEASE-TK kit); format: biochemical; settings: read-out: Inhibition rate on VEGFR2; for inhibition at 0.3 µM: 300 nM; for inhibition at 0.03 µM: 30 nM; for inhibition at 0.1 µM: 100 nM
Description: Experimental method: According to the instructions of the HTRF KinEASE-TK kit (Cisbio), the compounds of the present disclosure were tested for their inhibitory effects on the VEGFR2 enzyme activity. After pre-incubation of the VEGFR2 enzyme and different concentrations of test compounds at room temperature for 30 min, a substrate and adenosine triphosphate (ATP) were added to initiate the reaction. After incubation at room temperature for 40 min, TK antibody-cryptate and streptavidin-XL665 were added, and the test was performed after incubation at room temperature for 45 min. With the solvent group (DMSO) as the negative control and the buffer group (without VEGFR2 enzyme) as the blank control, the relative inhibitory activity percentages (i.e., inhibition rates) of different concentrations of the compounds were computed as per the following formula:
as §1, §2, §3, §4

[3] = read-out: Inhibition rate on RET-V804M

Sequence of VEGFR2 (P35968 20-1356, species assumed): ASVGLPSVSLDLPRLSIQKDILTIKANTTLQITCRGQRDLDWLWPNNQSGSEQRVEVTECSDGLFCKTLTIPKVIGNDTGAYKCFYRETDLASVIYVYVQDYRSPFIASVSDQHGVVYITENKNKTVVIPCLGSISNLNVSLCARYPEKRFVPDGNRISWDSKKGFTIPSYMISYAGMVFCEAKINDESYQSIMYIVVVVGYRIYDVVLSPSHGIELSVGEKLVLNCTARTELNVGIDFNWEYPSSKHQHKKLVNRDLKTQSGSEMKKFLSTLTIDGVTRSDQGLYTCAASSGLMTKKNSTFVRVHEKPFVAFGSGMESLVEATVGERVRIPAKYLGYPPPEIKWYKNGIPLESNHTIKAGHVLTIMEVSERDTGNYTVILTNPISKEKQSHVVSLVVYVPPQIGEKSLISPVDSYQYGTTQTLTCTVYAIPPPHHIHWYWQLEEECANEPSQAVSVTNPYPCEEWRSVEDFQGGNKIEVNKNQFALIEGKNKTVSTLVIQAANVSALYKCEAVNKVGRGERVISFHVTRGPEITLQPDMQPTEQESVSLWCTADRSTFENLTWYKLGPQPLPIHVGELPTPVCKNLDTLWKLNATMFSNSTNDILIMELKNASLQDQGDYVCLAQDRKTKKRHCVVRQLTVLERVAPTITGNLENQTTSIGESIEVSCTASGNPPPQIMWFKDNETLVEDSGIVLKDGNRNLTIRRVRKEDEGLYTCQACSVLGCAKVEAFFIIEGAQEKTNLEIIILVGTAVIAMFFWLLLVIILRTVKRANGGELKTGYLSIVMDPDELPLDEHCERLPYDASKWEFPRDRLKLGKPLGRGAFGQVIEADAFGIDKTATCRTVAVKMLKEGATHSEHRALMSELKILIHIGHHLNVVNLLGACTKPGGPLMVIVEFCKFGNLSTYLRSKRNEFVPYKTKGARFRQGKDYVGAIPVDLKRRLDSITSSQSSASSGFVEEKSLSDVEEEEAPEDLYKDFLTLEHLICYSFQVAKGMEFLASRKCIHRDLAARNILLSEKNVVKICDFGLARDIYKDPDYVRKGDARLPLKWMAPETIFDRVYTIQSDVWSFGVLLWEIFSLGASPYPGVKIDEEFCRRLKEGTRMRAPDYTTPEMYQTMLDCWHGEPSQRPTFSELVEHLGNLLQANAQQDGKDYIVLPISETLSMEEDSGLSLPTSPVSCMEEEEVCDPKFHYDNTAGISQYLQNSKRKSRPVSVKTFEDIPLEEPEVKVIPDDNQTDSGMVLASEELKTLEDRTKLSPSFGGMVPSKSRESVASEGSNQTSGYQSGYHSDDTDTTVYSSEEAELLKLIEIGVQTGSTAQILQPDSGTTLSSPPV
Sequence of RET-V804M (P07949 29-1114 V804M): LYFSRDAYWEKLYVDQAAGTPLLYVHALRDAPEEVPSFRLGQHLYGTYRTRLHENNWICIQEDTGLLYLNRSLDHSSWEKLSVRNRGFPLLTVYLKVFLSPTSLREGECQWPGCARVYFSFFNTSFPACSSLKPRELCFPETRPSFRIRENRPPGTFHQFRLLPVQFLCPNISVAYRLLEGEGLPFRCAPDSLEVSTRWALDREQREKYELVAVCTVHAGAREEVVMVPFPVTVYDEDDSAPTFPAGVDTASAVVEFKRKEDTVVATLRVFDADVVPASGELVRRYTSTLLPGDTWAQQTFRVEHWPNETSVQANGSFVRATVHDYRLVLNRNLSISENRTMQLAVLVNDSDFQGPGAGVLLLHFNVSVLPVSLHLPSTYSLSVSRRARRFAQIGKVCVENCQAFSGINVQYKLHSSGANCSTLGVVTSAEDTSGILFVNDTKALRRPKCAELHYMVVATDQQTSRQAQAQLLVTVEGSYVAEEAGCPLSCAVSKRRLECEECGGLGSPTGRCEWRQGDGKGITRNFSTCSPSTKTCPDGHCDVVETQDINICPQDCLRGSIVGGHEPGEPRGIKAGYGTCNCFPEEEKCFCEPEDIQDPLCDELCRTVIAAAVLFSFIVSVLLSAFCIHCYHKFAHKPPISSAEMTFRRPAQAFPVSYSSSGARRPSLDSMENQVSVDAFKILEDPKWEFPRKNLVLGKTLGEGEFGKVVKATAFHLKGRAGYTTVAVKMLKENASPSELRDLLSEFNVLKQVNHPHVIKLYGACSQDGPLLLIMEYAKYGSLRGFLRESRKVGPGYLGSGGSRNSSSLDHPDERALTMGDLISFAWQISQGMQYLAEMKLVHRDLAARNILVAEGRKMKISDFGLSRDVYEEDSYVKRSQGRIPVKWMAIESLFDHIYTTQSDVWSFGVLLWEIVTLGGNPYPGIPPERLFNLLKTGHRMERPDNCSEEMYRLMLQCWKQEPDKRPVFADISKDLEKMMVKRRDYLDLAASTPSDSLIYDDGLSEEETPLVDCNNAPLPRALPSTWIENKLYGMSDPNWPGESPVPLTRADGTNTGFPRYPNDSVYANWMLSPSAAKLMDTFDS

Work on Cc1cc(Nc2cc(C)[nH]n2)nc(-c2ccc(N3CC4CC(C3)N4C(C)c3ccc(-n4cccn4)nc3)nc2)n1 (single isomer, unassigned) [Compound 125-2] yielded an inhibition at 0.01 µM [1, 3] of 82% and an inhibition at 0.3 µM [2] of 63%.

Work on Cc1cc(Nc2cc(C)[nH]n2)nc(-c2ccc(N3CC4CC(C3)N4Cc3ccc(-c4ccc[nH]4)nc3)nc2)n1 [Compound 123, 2-(6-(6-((6-(1H-pyrrol-2-yl)pyridin-3-yl)methyl)-3,6-diazabicyclo[3.1.1]heptan-3-yl)pyridin-3-yl)-6-methyl-N-(5-methyl-1H-pyrazol-3-yl)pyrimidin-4-amine] yielded an IC50 [1] of 1.88 ± 0.11 nM and an inhibition at 0.03 µM [2] of 56%.

Cc1cc(Nc2cc(C)[nH]n2)nc(-c2ccc(N3CC4CC(C3)N4Cc3ccc(-c4ccc(C)o4)nc3)nc2)n1 [Compound 133, 6-methyl-N-(5-methyl-1H-pyrazol-3-yl)-2-(6-(6-((6-(5-methylfuran-2-yl)pyridin-3-yl)methyl)-3,6-diazabicyclo[3.1.1]heptan-3-yl)pyridin-3-yl)pyrimidin-4-amine] was tested, and the inhibition at 0.01 µM [1, 3] was 82% and the inhibition at 0.05 µM ([2]; 50 nM) was 28%.

In the case of Cc1cc(Nc2cc(C)[nH]n2)nc(-c2ccc(N3CC4CC(C3)N4Cc3ccc(-n4ccc(CF)n4)nc3)nc2)n1 [Compound 31, 2-(6-(6-((6-(3-(fluoromethyl)-1H-pyrazol-1-yl)pyridin-3-yl)methyl)-3,6-diazabicyclo[3.1.1]heptan-3-yl)pyridin-3-yl)-6-methyl-N-(5-methyl-1H-pyrazol-3-yl)pyrimidin-4-amine], the inhibition at 0.01 µM [1, 3] is reported as 81% and the inhibition at 0.03 µM [2] is reported as 17%.

Work on Cc1cc(Nc2cc(C)[nH]n2)nc(-c2ccc(N3CC4CC(C3)N4Cc3ccc(-n4cnc(F)c4)nc3)nc2)n1 [Compound 64, 2-(6-(6-((6-(4-fluoro-1H-imidazol-1-yl)pyridin-3-yl)methyl)-3,6-diazabicyclo[3.1.1]heptan-3-yl)pyridin-3-yl)-6-methyl-N-(5-methyl-1H-pyrazol-3-yl)pyrimidin-4-amine] yielded an inhibition at 0.01 µM [1, 3] of 79% and an inhibition at 0.1 µM [2] of 38%.

In the case of Cc1cc(Nc2cc(C)[nH]n2)nc(-c2ccc(N3CC4CC(C3)N4Cc3ccc(-n4cc(Cl)c(C)n4)nc3)nc2)n1 [Compound 28, 2-(6-(6-((6-(4-chloro-3-methyl-1H-pyrazol-1-yl)pyridin-3-yl)methyl)-3,6-diazabicyclo[3.1.1]heptan-3-yl)pyridin-3-yl)-6-methyl-N-(5-methyl-1H-pyrazol-3-yl)pyrimidin-4-amine], the IC50 [1] is reported as 10.4 ± 1.38 nM and the inhibition at 0.3 µM [2] is reported as 23%.

Compound Cc1cc(Nc2cc(C)[nH]n2)nc(-c2ccc(N3CC4CC(C3)N4Cc3ccc(-c4cnn(C(C)C)c4)nc3)nc2)n1 [Compound 135, 2-(6-(6-((6-(1-isopropyl-1H-pyrazol-4-yl)pyridin-3-yl)methyl)-3,6-diazabicyclo[3.1.1]heptan-3-yl)pyridin-3-yl)-6-methyl-N-(5-methyl-1H-pyrazol-3-yl)pyrimidin-4-amine] has an inhibition at 0.01 µM [1, 3] of 65% and an inhibition at 0.1 µM [2] of 34%.

Cc1cc(Nc2cc(C)[nH]n2)nc(-c2ccc(N3CC4CC(C3)N4Cc3cnc(C)s3)nc2)n1 [Compound 15, 6-methyl-N-(5-methyl-1H-pyrazol-3-yl)-2-(6-(6-((2-methylthiazol-5-yl)methyl)-3,6-diazabicyclo[3.1.1]heptan-3-yl)pyridin-3-yl)pyrimidin-4-amine] gave an inhibition at 0.1 µM ([1]; 100 nM (Table 2), read-out: Inhibition rate on RET-V804M) of 91% and an inhibition at 0.1 µM [2] of 29%.

With CCOc1ccc(CN2C3CC2CN(c2ccc(-c4nc(C)cc(Nc5cc(C)[nH]n5)n4)cn2)C3)cc1 [Compound 41, 2-(6-(6-(4-ethoxybenzyl)-3,6-diazabicyclo[3.1.1]heptan-3-yl)pyridin-3-yl)-6-methyl-N-(5-methyl-1H-pyrazol-3-yl)pyrimidin-4-amine] the inhibition at 0.01 µM [1, 3] was 64% and the inhibition at 0.1 µM [2] was 22%.

For CCc1ccnn1-c1ccc(CN2C3CC2CN(c2ccc(-c4nc(C)cc(Nc5cc(C)[nH]n5)n4)cn2)C3)cn1 [Compound 46, 2-(6-(6-((6-(5-ethyl-1H-pyrazol-1-yl)pyridin-3-yl)methyl)-3,6-diazabicyclo[3.1.1]heptan-3-yl)pyridin-3-yl)-6-methyl-N-(5-methyl-1H-pyrazol-3-yl)pyrimidin-4-amine], the inhibition at 0.01 µM [1, 3] was 92% and the inhibition at 0.3 µM [2] was 79%.

With Cc1cc(Nc2cc(C)[nH]n2)nc(-c2ccc(N3CC4CC(C3)N4Cc3ccc(-c4ccc(F)[nH]4)nc3)nc2)n1 [Compound 131, 2-(6-(6-((6-(5-fluoro-1H-pyrrol-2-yl)pyridin-3-yl)methyl)-3,6-diazabicyclo[3.1.1]heptan-3-yl)pyridin-3-yl)-6-methyl-N-(5-methyl-1H-pyrazol-3-yl)pyrimidin-4-amine] the inhibition at 0.01 µM [1, 3] was 72% and the inhibition at 0.03 µM [2] was 50%.

Cc1cc(Nc2cc(C)[nH]n2)nc(-c2ccc(N3CC4CC(C3)N4Cc3ccc(-n4cccn4)cc3)nc2)n1 [Compound 86, 2-(6-(6-(4-(1H-pyrazol-1-yl)benzyl)-3,6-diazabicyclo[3.1.1]heptan-3-yl)pyridin-3-yl)-6-methyl-N-(5-methyl-1H-pyrazol-3-yl)pyrimidin-4-amine] was tested, and the inhibition at 0.01 µM [1, 3] was 64% and the inhibition at 0.1 µM [2] was 52%.

Cc1ccc(OC2CCN(c3ccc(-c4nc(C)cc(Nc5cc(C)[nH]n5)n4)cn3)CC2)cn1 [Compound 119, 6-methyl-N-(5-methyl-1H-pyrazol-3-yl)-2-(6-(4-((6-methylpyridin-3-yl)oxy)piperidin-1-yl)pyridin-3-yl)pyrimidin-4-amine] gave an IC50 [1] of 14.2 ± 1.27 nM and an inhibition at 0.1 µM [2] of -7%.

Cc1cc(Nc2cc(C)[nH]n2)nc(-c2ccc(N3CC4CC(C3)N4Cc3ccc(-n4nccc4C)nc3)nc2)n1 [Compound 9, 6-methyl-2-(6-(6-((6-(5-methyl-1H-pyrazol-1-yl)pyridin-3-yl)methyl)-3,6-diazabicyclo[3.1.1]heptan-3-yl)pyridin-3-yl)-N-(5-methyl-1H-pyrazol-3-yl)pyrimidin-4-amine] gave an IC50 [1] of 5.43 ± 0.91 nM and an inhibition at 0.3 µM [2] of 69%.

Cc1cc(Nc2cc(C)[nH]n2)nc(-c2ccc(N3CC4CC(C3)N4Cc3ccc(-n4nccc4OC4CCC4)nc3)nc2)n1 [Compound 27, 2-(6-(6-((6-(5-cyclobutoxy-1H-pyrazol-1-yl)pyridin-3-yl)methyl)-3,6-diazabicyclo[3.1.1]heptan-3-yl)pyridin-3-yl)-6-methyl-N-(5-methyl-1H-pyrazol-3-yl)pyrimidin-4-amine] was tested, and the inhibition at 0.01 µM [1, 3] was 87% and the inhibition at 0.03 µM [2] was 23%.

In the case of Cc1cc(Nc2cc(C)[nH]n2)nc(-c2ccc(N3CC4CC(C3)N4C(=O)c3ccc(-n4cc(F)cn4)nc3)nc2)n1 [Compound 26, (6-(4-fluoro-1H-pyrazol-1-yl)pyridin-3-yl)(3-(5-(4-methyl-6-((5-methyl-1H-pyrazol-3-yl)-amino)pyrimidin-2-yl)pyridin-2-yl)-3,6-diazabicyclo[3.1.1]heptan-6-yl)methanone], the inhibition at 0.01 µM [1, 3] is reported as 83% and the inhibition at 0.3 µM [2] is reported as 64%.

In the case of Cc1cc(Nc2cc(C)[nH]n2)nc(-c2ccc(N3CC4CC(C3)N4Cc3ccc(-n4nccc4C(C)C)nc3)nc2)n1 [Compound 12, 2-(6-(6-((6-(5-isopropyl-1H-pyrazol-1-yl)pyridin-3-yl)methyl)-3,6-diazabicyclo[3.1.1]heptan-3-yl)pyridin-3-yl)-6-methyl-N-(5-methyl-1H-pyrazol-3-yl)pyrimidin-4-amine], the IC50 [1] is reported as 6.94 ± 0.78 nM and the inhibition at 0.3 µM [2] is reported as 62%.

Work on Cc1cc(Nc2cc(C)[nH]n2)nc(-c2ccc(N3CC4CC(C3)N4Cc3ccc(F)cc3)nc2)n1 [Compound 83, 2-(6-(6-(4-fluorobenzyl)-3,6-diazabicyclo[3.1.1]heptan-3-yl)pyridin-3-yl)-6-methyl-N-(5-methyl-1H-pyrazol-3-yl)pyrimidin-4-amine] yielded an inhibition at 0.01 µM [1, 3] of 56% and an inhibition at 0.1 µM [2] of 18%.

Work on Cc1cc(Nc2cc(C)[nH]n2)nc(-c2ccc(N3CC4CC(C3)N4Cc3ccc(Cl)cc3)nc2)n1 [Compound 82, 2-(6-(6-(4-chlorobenzyl)-3,6-diazabicyclo[3.1.1]heptan-3-yl)pyridin-3-yl)-6-methyl-N-(5-methyl-1H-pyrazol-3-yl)pyrimidin-4-amine] yielded an inhibition at 0.01 µM [1, 3] of 43% and an inhibition at 0.1 µM [2] of 15%.

Cc1cc(Nc2cc(C)[nH]n2)nc(-c2ccc(N3CC4CC(C3)N4Cc3ccc(-c4ccn[nH]4)nc3)nc2)n1 [Compound 132, 2-(6-(6-((6-(1H-pyrazol-5-yl)pyridin-3-yl)methyl)-3,6-diazabicyclo[3.1.1]heptan-3-yl)pyridin-3-yl)-6-methyl-N-(5-methyl-1H-pyrazol-3-yl)pyrimidin-4-amine] gave an inhibition at 0.01 µM [1, 3] of 84% and an inhibition at 0.03 µM [2] of 31%.
